Source: publication PMC8808171, “Nonselective TRPC channel inhibition and suppression of aminoglycoside-induced premature termination codon readthrough by the small molecule AC1903” (The Journal of Biological Chemistry, 2022)

Key:
TRPC4:C4 = molecular target: T1, TRPC4:C4 (Homo sapiens, UniProt Q9UBN4); assay: [Ca2+]i recordings (Fura-2), TRPC4:C4 in HEK T-REx cells; type: cell-based; conditions: for IC50: HEK T-REx
T1 construct: expressed in transfected cells; host or cells: HEK T-REx (tetracycline-induced)
T1 sequence (Q9UBN4 1-893 isoform Q9UBN4-2): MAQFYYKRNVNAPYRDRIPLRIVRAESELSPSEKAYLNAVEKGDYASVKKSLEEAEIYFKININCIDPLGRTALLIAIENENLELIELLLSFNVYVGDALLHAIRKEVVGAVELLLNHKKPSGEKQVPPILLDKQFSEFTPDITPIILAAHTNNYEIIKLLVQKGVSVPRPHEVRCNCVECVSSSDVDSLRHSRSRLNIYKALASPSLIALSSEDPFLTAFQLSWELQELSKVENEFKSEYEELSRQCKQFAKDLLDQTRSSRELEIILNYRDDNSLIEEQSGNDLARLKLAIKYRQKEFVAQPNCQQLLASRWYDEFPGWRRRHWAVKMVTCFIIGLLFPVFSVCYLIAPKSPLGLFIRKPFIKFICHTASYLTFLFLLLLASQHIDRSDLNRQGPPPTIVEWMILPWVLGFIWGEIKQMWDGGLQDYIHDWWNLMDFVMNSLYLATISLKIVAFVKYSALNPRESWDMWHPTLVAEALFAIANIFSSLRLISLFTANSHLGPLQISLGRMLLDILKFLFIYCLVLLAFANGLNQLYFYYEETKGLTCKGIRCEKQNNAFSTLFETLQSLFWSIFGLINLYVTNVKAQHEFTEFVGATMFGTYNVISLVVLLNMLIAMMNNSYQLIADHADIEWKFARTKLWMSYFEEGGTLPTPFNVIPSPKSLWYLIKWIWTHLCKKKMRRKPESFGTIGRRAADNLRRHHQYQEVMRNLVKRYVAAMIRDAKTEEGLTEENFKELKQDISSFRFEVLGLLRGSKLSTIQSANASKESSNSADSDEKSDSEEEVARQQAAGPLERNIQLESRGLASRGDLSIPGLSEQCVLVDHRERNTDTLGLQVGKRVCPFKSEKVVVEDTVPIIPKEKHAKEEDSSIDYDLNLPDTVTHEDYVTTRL
Protocol: (§1) Based on the findings described above, we wondered whether AC1903—which is typically used as a TRPC5 inhibitor at concentrations of 30–100 μM in cellular assays ([29], [56])—might have limited selectivity for TRPC5 channels and whether its effect on intracellular G418 levels and PTC readthrough might be the consequence of inhibition of other or multiple targets. All well-characterized TRPC channel inhibitors reported to date modulate multiple TRP(C) channels ([34], [35], [36]). […] Because limited data for the selectivity of AC1903 are available in the public domain, we decided to profile AC1903 against a selection of calcium-permeable cation channels by intracellular calcium ([Ca^2+]i) recordings using well-characterized cell lines and TRP channel activators ([46], [57], [58]), and the Ca^2+ indicator Fura-2. In these assays, cells (HEK 293, HEK T-REx, or CHO) overexpressing the relevant ion channel protein and loaded with Fura-2 AM (a cell-permeable precursor of Fura-2) were preincubated with various concentrations of AC1903 or vehicle (DMSO) for 30 min. Then, changes in ratiometric fluorescence (from background) were recorded upon addition of the respective ion channel activator.
Figure 4 AC1903 inhibits multiple TRP channels.A and C, representative [Ca^2+]i measurements from a single 96-well plate (N = 6; mean ± SD over technical replicates) showing inhibition of EA-mediated [Ca^2+]i responses by 0.1 to 100 μM AC1903 in (Tet+) HEK T-REx cells expressing TRPC5 (A) or TRPC4 (C). B and D, concentration–response data for experiments in (A) and (C) (scatter plots showing normalized data for three independent experiments; n/N = 3/18). Responses were calculated at 250 to 295 s compared to [Ca^2+]i at baseline (0–55 s). E and G, representative [Ca^2+]i measurements from a single 96-well plate (N = 6; mean ± SD over technical replicates) showing inhibition of OAG-mediated [Ca^2+]i responses by 0.1 to 100 μM AC1903 in (Tet+) HEK T-REx cells expressing TRPC3 (E) and WT HEK 293 cells transiently expressing TRPC6 (G). F and H, concentration–response data for experiments in (E) and (G) (scatter plots showing normalized data for three independent experiments; n/N = 3/18). Responses were calculated at 90 to 110 s compared with [Ca^2+]i at baseline (0–55 s). I, representative [Ca^2+]i measurements from a single 96-well plate (N = 6; mean ± SD over technical replicates) showing inhibition of the 4α-PDD-mediated [Ca^2+]i response by 0.1 to 100 μM AC1903 in CHO cells stably expressing TRPV4. J, concentration–response data for experiments in (I) (scatter plot showing normalized data for three independent experiments; n/N = 3/18). Responses were calculated at 290 to 300 s compared with [Ca^2+]i baseline (0–55 s). EA, (-)-englerin A; TRPC, transient receptor potential canonical. […]

TRPV4:V4 = molecular target: T2, TRPV4:V4 (Homo sapiens, UniProt Q9HBA0); assay: [Ca2+]i recordings (Fura-2), TRPV4:V4 in CHO cells; type: cell-based; conditions: activator 4α-PDD
T2 construct: expressed in transfected cells
Protocol: as §1, with “activator. […]” for “activator.”

T2 sequence (Q9HBA0 whole entry): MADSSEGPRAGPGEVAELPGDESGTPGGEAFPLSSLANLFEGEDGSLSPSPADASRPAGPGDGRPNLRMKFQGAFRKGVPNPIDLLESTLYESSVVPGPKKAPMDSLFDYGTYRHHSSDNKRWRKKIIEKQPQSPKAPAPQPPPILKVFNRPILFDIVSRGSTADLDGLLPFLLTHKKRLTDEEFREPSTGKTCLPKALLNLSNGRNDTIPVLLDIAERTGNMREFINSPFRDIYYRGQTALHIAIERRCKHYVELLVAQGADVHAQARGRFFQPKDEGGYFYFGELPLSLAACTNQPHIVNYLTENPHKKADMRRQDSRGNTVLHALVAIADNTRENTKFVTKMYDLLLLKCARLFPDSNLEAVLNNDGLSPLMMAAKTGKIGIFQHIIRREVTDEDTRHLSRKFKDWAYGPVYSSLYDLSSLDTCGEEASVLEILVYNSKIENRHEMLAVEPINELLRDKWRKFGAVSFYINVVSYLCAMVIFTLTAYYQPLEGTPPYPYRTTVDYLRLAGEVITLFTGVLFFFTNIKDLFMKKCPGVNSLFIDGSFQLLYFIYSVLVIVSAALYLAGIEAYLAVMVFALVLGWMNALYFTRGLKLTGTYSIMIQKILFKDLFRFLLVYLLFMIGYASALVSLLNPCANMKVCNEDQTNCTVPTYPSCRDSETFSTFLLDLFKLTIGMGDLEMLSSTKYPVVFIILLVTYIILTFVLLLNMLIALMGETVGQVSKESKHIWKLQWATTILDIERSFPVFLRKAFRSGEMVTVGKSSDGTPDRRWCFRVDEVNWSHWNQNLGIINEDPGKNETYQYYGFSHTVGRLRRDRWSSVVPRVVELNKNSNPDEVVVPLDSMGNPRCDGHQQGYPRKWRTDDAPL

IC50 (TRPC4:C4; activator EA (30 nM)): 2.1 µM
IC50 (TRPC4:C4; activator S1P (10 μM)): 1.8 µM
Hill slope (TRPC4:C4; activator EA (30 nM)): -1.7
Hill slope (TRPC4:C4; activator S1P (10 μM)): -1.9
IC50 (TRPV4:V4; CHO): 19 µM
Hill slope (TRPV4:V4): -1.7
SMILES: c1ccc(Cn2c(NCc3ccco3)nc3ccccc32)cc1 [AC1903]
